Results: ChEMBL document CHEMBL4033603, “Spongian-16-one Diterpenes and Their Anatomical Distribution in the Australian Nudibranch Goniobranchus collingwoodi” (J Nat Prod, 2017)
pIC50: −log10 of the molar value.

Legend:
Format in all cases: functional, cell-based
HepG2 = assay: Cytotoxicity against human HepG2 cells assessed as reduction in cell viability after 48 hrs by MTT assay; conditions: HepG2, 48 h
SW-620 = assay: Cytotoxicity against human SW620 cells assessed as reduction in cell viability after 48 hrs by MTT assay; conditions: SW-620, 48 h
NCI-H460 = assay: Cytotoxicity against human NCI-H460 cells assessed as reduction in cell viability after 48 hrs by MTT assay; conditions: NCI-H460, 48 h
L1210 = assay: Cytotoxicity against mouse L1210 cells assessed as reduction in cell viability
KB = assay: Cytotoxicity against human KB cells assessed as reduction in cell viability

SMILES | pIC50 (HepG2) | pIC50 (SW-620) | pIC50 (NCI-H460) | pIC50 (L1210) | pIC50 (KB)
CCC(=O)OC[C@]12CCCC(C)(C)[C@@H]1CC[C@@]1(C)[C@@H]3COC(=O)[C@@H]3C[C@H](OC(C)=O)[C@@H]12 | < 4.52 | < 4.52 | < 4.52 | – | –
CCC(=O)OC[C@]12CCCC(C)(C)[C@@H]1CC[C@@]1(C)[C@@H]3COC(=O)[C@@H]3[C@@H](OC(C)=O)C[C@@H]12 | < 4.52 | < 4.52 | < 4.52 | – | –
CC(=O)OC[C@]12CCCC(C)(C)[C@@H]1CC[C@@]1(C)[C@@H]3COC(=O)[C@@H]3[C@@H](OC(C)=O)C[C@@H]12 | < 4.52 | < 4.52 | < 4.52 | – | –
CCC(=O)OC[C@]12CCCC(C)(C)[C@@H]1C[C@@H](OC(=O)CC(C)C)[C@@]1(C)[C@@H]3COC(=O)[C@@H]3C[C@H](O)[C@H]21 | < 4.52 | < 4.52 | < 4.52 | – | –
CCC(=O)O[C@@H]1C[C@H]2C(=O)OC[C@H]2[C@@]2(C)[C@H]1[C@@]1(C)CCCC(C)(C)[C@@H]1C[C@H]2OC(=O)CC(C)C | < 4.52 | < 4.52 | < 4.52 | – | –
CC(=O)O[C@@H]1C[C@H]2C(C)(C)CCC[C@]2(C)[C@H]2CC[C@H]3C(=O)OC[C@H]3[C@@]21C | – | – | – | 5.21 | 4.36
CC(=O)OC[C@]12CCCC(C)(C)[C@@H]1CC[C@@]1(C)[C@@H]3COC(=O)[C@@H]3C[C@H](OC(C)=O)[C@@H]12 | < 4.52 | < 4.52 | < 4.52 | – | –
CC1(C)CCC[C@]2(C)[C@H]3CC[C@H]4C(=O)OC[C@H]4[C@]3(C)CC[C@@H]12 | – | – | – | 4.79 | 4.52
